Laboratory results as given in ChEMBL document CHEMBL1649203, “Pharmacokinetics and safety of famciclovir in children with herpes simplex or varicella-zoster virus infection” (Antimicrob Agents Chemother, 2009).

What was measured:
Homo sapiens [1] = experiment: AUC (0 to last) in healthy human at 500 mg, po administered as single dose; type: ADME, organism-based, Plasma; parameters: dose 500 mg, time 0 - last, route oral; conditions: in vivo
Homo sapiens [2] = experiment: AUC (0 to infinity) in healthy human at 500 mg, po administered as single dose; type: ADME, organism-based, Plasma; parameters: dose 500 mg, route oral, time infinity; conditions: in vivo

CC(=O)OCC(CCn1cnc2cnc(N)nc21)COC(C)=O [FAMCICLOVIR]
AUC (Homo sapiens [1]): 8.54 ug/hr.ml
AUC (Homo sapiens [2]): 8.94 ug/hr.ml
